Tests used:
CYP2C19 = CYP2C19 (Homo sapiens, UniProt P33261); settings: recombinant enzyme
Protocol: (§1) Control incubations were performed for each assay with appropriate positive inhibitory controls.

[1] = target: T1, rat α3β4 nicotinic acetylcholine receptor (nAChR) (Rattus norvegicus, UniProt P04757+P12392); test: cell-based
T1 construct: expressed in transfected cells; host or cells: HEK 293 (ATCC CRL1573), transient, Lipofectamine 2000

cynomolgus monkeys = test: 14-day nasogastric gavage GLP toxicity study in cynomolgus monkeys; type: in vivo, cynomolgus monkey; settings: 14 days
Description: Assessments of neurobehavioral effects and general toxicity were based on mortality, functional observational battery (FOB) evaluations, clinical observations, body weight, and body temperature; ophthalmoscopic, electrocardiographic examinations; and anatomic and clinical pathology. The anatomical pathology evaluations included histopathology of a full list of tissues from all animals and a comprehensive evaluation of the central nervous system (including selected peripheral nerves) utilizing whole body perfusion and special stains. Bone marrow smears from all animals were evaluated microscopically. Complete differentials and myeloid-erythroid (ME) ratios were performed. Toxicokinetic assessment was conducted for the test article and metabolites.

[2] = Toxicokinetics, 14-day oral gavage study in CD-1 mice; type: in vivo, mouse; settings: after 14 days of 25 mg/kg 18-MC HCl
Protocol: The relative metabolite concentrations were determined from plasma samples obtained on the last day of dosing in the 25 mg/kg/day group of animals using a UPLC/MS/MS method. Major metabolites were identified as M2 and M4, followed by M8 and M9. The parent 18-MC exposure was less than 1% of the total drug related material. No significant sex differences were observed.
All test article-treated animals underwent up-titration of dosage levels prior to reaching the maximum daily dose, which was administered for 14 consecutive days. […] The dose volume was 10 mL/kg for all groups. Groups 1 and 4 each consisted of 25 animals/sex and Groups 2-3 each consisted of 20 animals for each sex. Following 14 days of dose administration, 15 mice/sex/toxicology group were euthanized; the remaining 5, (10 for the control and high dose group) mice/sex/toxicology group were euthanized following a 14-day nondosing (recovery) period. Following the final blood collection (study day 13), all toxicokinetic animals (from a satellite group of 18 animals/sex/dose level) were euthanized.

Sprague Dawley rats = test: Modified Irwin test, pilot dose finding study, female rats; type: in vivo, rat; settings: single oral dose 30-800 mg/kg
Protocol: Under the conditions of this study, the no-observed-effect level (NOEL) and no-observed-adverse-effect level (NOAEL) were considered to be 90 mg/kg and 400 mg/kg, respectively.

CYP2C9 = CYP2C9 (Homo sapiens, UniProt P11712); settings: recombinant enzyme
CYP2C9, sequence (P11712 whole entry): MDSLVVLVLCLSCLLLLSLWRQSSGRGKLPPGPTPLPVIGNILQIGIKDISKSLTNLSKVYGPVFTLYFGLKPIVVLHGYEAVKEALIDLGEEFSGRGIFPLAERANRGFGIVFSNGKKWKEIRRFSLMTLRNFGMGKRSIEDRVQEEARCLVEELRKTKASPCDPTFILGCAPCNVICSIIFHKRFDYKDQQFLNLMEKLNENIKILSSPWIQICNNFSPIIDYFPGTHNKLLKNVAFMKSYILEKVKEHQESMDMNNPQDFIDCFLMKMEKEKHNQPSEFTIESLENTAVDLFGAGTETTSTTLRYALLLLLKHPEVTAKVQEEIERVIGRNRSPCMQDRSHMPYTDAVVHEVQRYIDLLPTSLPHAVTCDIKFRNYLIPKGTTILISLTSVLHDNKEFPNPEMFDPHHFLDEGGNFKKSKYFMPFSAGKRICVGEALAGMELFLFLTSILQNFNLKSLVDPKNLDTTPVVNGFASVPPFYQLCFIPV
Protocol: as §1

T1 sequence (P04757 26-499): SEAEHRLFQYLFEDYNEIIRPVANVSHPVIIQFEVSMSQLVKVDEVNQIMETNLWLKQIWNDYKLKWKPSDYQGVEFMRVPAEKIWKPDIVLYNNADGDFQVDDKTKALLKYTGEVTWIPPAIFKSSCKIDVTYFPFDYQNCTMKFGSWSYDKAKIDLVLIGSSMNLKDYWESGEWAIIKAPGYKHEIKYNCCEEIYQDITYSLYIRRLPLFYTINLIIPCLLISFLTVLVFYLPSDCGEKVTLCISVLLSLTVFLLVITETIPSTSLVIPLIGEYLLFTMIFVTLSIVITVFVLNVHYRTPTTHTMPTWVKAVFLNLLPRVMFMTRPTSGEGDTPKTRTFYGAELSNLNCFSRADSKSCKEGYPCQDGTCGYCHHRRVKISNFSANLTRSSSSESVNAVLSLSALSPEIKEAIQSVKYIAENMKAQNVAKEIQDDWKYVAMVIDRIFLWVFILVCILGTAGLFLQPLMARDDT
T1 sequence (P12392 21-495): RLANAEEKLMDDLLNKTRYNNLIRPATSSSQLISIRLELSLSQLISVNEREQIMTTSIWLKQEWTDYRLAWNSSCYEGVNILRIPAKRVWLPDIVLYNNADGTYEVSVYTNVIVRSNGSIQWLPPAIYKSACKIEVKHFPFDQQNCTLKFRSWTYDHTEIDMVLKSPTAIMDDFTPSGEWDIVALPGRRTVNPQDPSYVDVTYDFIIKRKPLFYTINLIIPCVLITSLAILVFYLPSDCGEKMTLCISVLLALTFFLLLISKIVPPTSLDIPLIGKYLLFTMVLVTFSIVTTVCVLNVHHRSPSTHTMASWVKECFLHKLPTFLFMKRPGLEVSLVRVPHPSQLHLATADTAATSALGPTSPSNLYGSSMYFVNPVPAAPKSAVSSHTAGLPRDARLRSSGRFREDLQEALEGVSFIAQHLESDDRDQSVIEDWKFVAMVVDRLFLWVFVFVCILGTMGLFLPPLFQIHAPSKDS
CYP2C19, sequence (P33261 whole entry): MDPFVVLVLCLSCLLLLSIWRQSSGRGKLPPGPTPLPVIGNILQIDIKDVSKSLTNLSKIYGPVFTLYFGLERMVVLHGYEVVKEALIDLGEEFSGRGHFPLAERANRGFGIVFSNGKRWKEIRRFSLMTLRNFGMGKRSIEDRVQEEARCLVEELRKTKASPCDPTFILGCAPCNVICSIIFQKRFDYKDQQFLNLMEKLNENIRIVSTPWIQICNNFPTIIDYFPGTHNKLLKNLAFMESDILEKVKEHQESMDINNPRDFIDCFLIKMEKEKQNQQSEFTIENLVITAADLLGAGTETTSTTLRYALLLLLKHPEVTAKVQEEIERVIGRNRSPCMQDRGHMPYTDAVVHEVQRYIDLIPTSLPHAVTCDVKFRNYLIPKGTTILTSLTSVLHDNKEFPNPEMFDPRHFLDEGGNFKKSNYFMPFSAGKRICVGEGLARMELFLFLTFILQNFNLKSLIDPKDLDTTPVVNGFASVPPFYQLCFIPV

COCC[C@H]1CC2CN3CCc4c([nH]c5ccccc45)[C@](C(=O)OC)(C2)[C@H]13 [18-MC, 18-methoxycoronaridine]
IC50 (CYP2C19): 4.9 µM | Ipeak [1]: 50 ± 4% of ACh | Iss [1]: 34 ± 5% of peak | τdecay [1]: 298 ± 23 ms | IC50 ([1]; read-out: IC50, inhibition of ACh-evoked currents): 0.8 µM | NOAEL (cynomolgus monkeys): 50 mg/kg/day | AUC [2]: 251 ng·h/mL | Cmax [2]: 105 ng/mL | no-observed-adverse-effect level (NOAEL) (Sprague Dawley rats): 400 mg/kg | no-observed-effect level (NOEL) (Sprague Dawley rats): 90 mg/kg | IC50 (CYP2C9): 4.1 µM
